Earlier results in paper PMC10006169, “A phase I trial of LXS196, a protein kinase C (PKC) inhibitor, for metastatic uveal melanoma” (British Journal of Cancer, 2023).

Tests used:
92.1 human UM xenograft = test system: 92.1 human UM xenograft; parameters: method as in PMID 27507190; conditions: doses below MTD; cited from earlier work
patients with MUM = test system: patients with MUM; parameters: method as in PMID 32029634; conditions: cited from earlier work
[1] = test system: UM cell lines containing mutant GNAQ or GNA11; conditions: cited from earlier work
[2] = test system: HLA-A*02:01-positive patients with first-line MUM; parameters: method as in PMID 34551229; conditions: cited from earlier work

Compound | Tumour effect as single agent (92.1 human UM xenograft) | Estimated median PFS (patients with MUM; 95% CI: 2.5–3.6) [months] | ORR (patients with MUM; across all doses) [%] | Dose-limiting toxicities (patients with MUM) | Median duration of SD (patients with MUM) [months] | Stable disease (SD) as best response (patients with MUM) [%] | Sensitivity of UM cell lines carrying Gα subunit mutations [1] | Hazard ratio (OS vs Investigator's choice) ([2]; 95% CI: 0.37–0.71) | 1-year OS rate ([2]; control group 59%) [%]
CN1CCN(c2nc(C3=C(c4c[nH]c5ccccc45)C(=O)NC3=O)c3ccccc3n2)CC1 [AEB071, 3-(1H-Indol-3-yl)-4-[2-(4-methylpiperazin-1-yl)quinazolin-4-yl]pyrrole-2,5-dione] | stasis | 3.5 | 3 | increased frequency of dose-limiting gastrointestinal (GI) toxicities associated with increasing dose | 3.75 | 50 | selective sensitivity | – | –
tebentafusp: bispecific fusion protein (Immunocore) designed to redirect T cells to gp100-positive cells | – | – | – | – | – | – | – | 0.51 | 73
